Data reported in the supplement of paper PMC10307832.

Legend:
Test in all cases: relative viability (nuclei count vs DMSO), 5 days (fraction); higher = more cells survive
EBC-1 = test system: EBC-1
Summary of the method: (§1)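 Values are medians from duplicate plates. Each reflects relative viability, defined as the nuclei count of treated wells over that of vehicle wells. Lung cancer cell lines in 1536-well plates were pin-tool dosed one day after seeding with one drug alone or with a fixed anchor-drug dose plus five library-drug doses (not always all listed) in √10 steps, then fixed, stained and imaged at 4× after 5 days.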

UMC-11 = test system: UMC-11
Summary of the method: as §1

NCI-H1299 = test system: NCI-H1299
Summary of the method: as §1

NCI-H1648 = test system: NCI-H1648
Summary of the method: as §1

IA-LM = test system: IA-LM
Summary of the method: as §1

Calu-6 = test system: Calu-6
Summary of the method: as §1

NCI-H1703 = test system: NCI-H1703
Summary of the method: as §1

A549 = test system: A549
Summary of the method: as §1

C[C@@H]1CN(CC(=O)Nc2ccc3c(c2)Cc2cccc(-c4cc(=O)cc(N5CCOCC5)o4)c2S3)C[C@H](C)O1 + O=C(c1cc(Cc2n[nH]c(=O)c3ccccc23)ccc1F)N1CCN(C(=O)C2CC2)CC1 [Olaparib] (partner 8 µM)
relative viability (EBC-1; first compound 0.04 µM): 0.736
relative viability (EBC-1; first compound 0.1265 µM): 0.723
relative viability (EBC-1; first compound 0.4 µM): 0.494
relative viability (EBC-1; first compound 4 µM): 0.147
relative viability (UMC-11; first compound 0.04 µM): 0.32
relative viability (UMC-11; first compound 0.1265 µM): 0.351
relative viability (UMC-11; first compound 0.4 µM): 0.86
relative viability (UMC-11; first compound 4 µM): 0.272
relative viability (NCI-H1299; first compound 0.04 µM): 1.08
relative viability (NCI-H1299; first compound 0.1265 µM): 1
relative viability (NCI-H1299; first compound 0.4 µM): 1.05
relative viability (NCI-H1299; first compound 4 µM): 0.488
relative viability (NCI-H1648; first compound 0.04 µM): 0.56
relative viability (NCI-H1648; first compound 0.1265 µM): 1.08
relative viability (NCI-H1648; first compound 0.4 µM): 0.879
relative viability (NCI-H1648; first compound 4 µM): 0.56
relative viability (IA-LM; first compound 0.04 µM): 0.844
relative viability (IA-LM; first compound 0.1265 µM): 0.976
relative viability (IA-LM; first compound 0.4 µM): 0.792
relative viability (IA-LM; first compound 4 µM): 0.207
relative viability (Calu-6; first compound 0.04 µM): 0.646
relative viability (Calu-6; first compound 0.1265 µM): 0.573
relative viability (Calu-6; first compound 0.4 µM): 0.672
relative viability (Calu-6; first compound 4 µM): 0.299
relative viability (NCI-H1703; first compound 0.04 µM): 0.489
relative viability (NCI-H1703; first compound 0.1265 µM): 0.407
relative viability (NCI-H1703; first compound 0.4 µM): 0.295
relative viability (NCI-H1703; first compound 4 µM): 0.208
relative viability (A549; first compound 0.04 µM): 0.239
relative viability (A549; first compound 0.1265 µM): 0.334
relative viability (A549; first compound 0.4 µM): 0.332
relative viability (A549; first compound 4 µM): 0.0917

CC(C)Oc1cc(Nc2nc(N[C@@H](C)c3ccc(F)cn3)ncc2Cl)n[nH]1 [AZ23] + O=C(c1cc(Cc2n[nH]c(=O)c3ccccc23)ccc1F)N1CCN(C(=O)C2CC2)CC1 [Olaparib] (partner 8 µM)
relative viability (EBC-1; first compound 0.01 µM): 0.884
relative viability (EBC-1; first compound 0.03162 µM): 0.767
relative viability (EBC-1; first compound 0.3162 µM): 0.734
relative viability (UMC-11; first compound 0.01 µM): 0.392
relative viability (UMC-11; first compound 0.03162 µM): 0.422
relative viability (UMC-11; first compound 0.3162 µM): 0.372
relative viability (NCI-H1299; first compound 0.01 µM): 1.06
relative viability (NCI-H1299; first compound 0.03162 µM): 0.984
relative viability (NCI-H1299; first compound 0.3162 µM): 1.03
relative viability (NCI-H1648; first compound 0.01 µM): 0.6
relative viability (NCI-H1648; first compound 0.03162 µM): 1.01
relative viability (NCI-H1648; first compound 0.3162 µM): 0.697
relative viability (IA-LM; first compound 0.01 µM): 0.79
relative viability (IA-LM; first compound 0.03162 µM): 0.914
relative viability (IA-LM; first compound 0.3162 µM): 0.949
relative viability (Calu-6; first compound 0.03162 µM): 0.662
relative viability (Calu-6; first compound 0.3162 µM): 0.644
relative viability (NCI-H1703; first compound 0.03162 µM): 0.411
relative viability (NCI-H1703; first compound 0.3162 µM): 0.397
relative viability (A549; first compound 0.01 µM): 0.201
relative viability (A549; first compound 0.03162 µM): 0.54
relative viability (A549; first compound 0.3162 µM): 0.327

COc1cc(N2CCC(C(N)=O)CC2)ccc1Nc1nc(N)c(Cl)c(Nc2ccccc2S(=O)(=O)C(C)C)n1 [HG-5-88-01] + CS(=O)(=O)CCNCc1ccc(-c2ccc3ncnc(Nc4ccc(OCc5cccc(F)c5)c(Cl)c4)c3c2)o1 [Lapatinib] (partner 2 µM)
relative viability (EBC-1; first compound 0.04 µM): 0.221
relative viability (EBC-1; first compound 0.1265 µM): 0.22
relative viability (EBC-1; first compound 0.4 µM): 0.209
relative viability (EBC-1; first compound 1.265 µM): 0.21
relative viability (EBC-1; first compound 4 µM): 0.195
relative viability (UMC-11; first compound 0.04 µM): 0.84
relative viability (UMC-11; first compound 0.1265 µM): 1.13
relative viability (UMC-11; first compound 0.4 µM): 0.837
relative viability (UMC-11; first compound 1.265 µM): 0.927
relative viability (UMC-11; first compound 4 µM): 0.632
relative viability (NCI-H1299; first compound 0.04 µM): 0.914
relative viability (NCI-H1299; first compound 0.1265 µM): 0.983
relative viability (NCI-H1299; first compound 0.4 µM): 0.87
relative viability (NCI-H1299; first compound 1.265 µM): 1.05
relative viability (NCI-H1299; first compound 4 µM): 0.963
relative viability (IA-LM; first compound 0.04 µM): 0.891
relative viability (IA-LM; first compound 0.1265 µM): 0.864
relative viability (IA-LM; first compound 0.4 µM): 0.721
relative viability (IA-LM; first compound 1.265 µM): 0.712
relative viability (IA-LM; first compound 4 µM): 0.404
relative viability (Calu-6; first compound 0.04 µM): 1.11
relative viability (Calu-6; first compound 0.1265 µM): 1.05
relative viability (Calu-6; first compound 0.4 µM): 1.19
relative viability (Calu-6; first compound 1.265 µM): 1.04
relative viability (Calu-6; first compound 4 µM): 0.774
relative viability (NCI-H1703; first compound 0.04 µM): 0.832
relative viability (NCI-H1703; first compound 0.1265 µM): 1.15
relative viability (NCI-H1703; first compound 0.4 µM): 1.22
relative viability (NCI-H1703; first compound 1.265 µM): 1.08
relative viability (NCI-H1703; first compound 4 µM): 0.619
relative viability (A549; first compound 0.04 µM): 0.984
relative viability (A549; first compound 0.1265 µM): 0.917
relative viability (A549; first compound 0.4 µM): 0.845
relative viability (A549; first compound 1.265 µM): 0.573
relative viability (A549; first compound 4 µM): 0.411

COc1cc(N2CCC(C(N)=O)CC2)ccc1Nc1nc(N)c(Cl)c(Nc2ccccc2S(=O)(=O)C(C)C)n1 [HG-5-88-01] + CS(=O)(=O)N1CCN(Cc2cc3nc(-c4cccc5[nH]ncc45)nc(N4CCOCC4)c3s2)CC1 [Pictilisib] (partner 1 µM)
relative viability (EBC-1; first compound 0.04 µM): 0.394
relative viability (EBC-1; first compound 0.1265 µM): 0.362
relative viability (EBC-1; first compound 0.4 µM): 0.339
relative viability (EBC-1; first compound 1.265 µM): 0.324
relative viability (EBC-1; first compound 4 µM): 0.217
relative viability (UMC-11; first compound 0.04 µM): 0.506
relative viability (UMC-11; first compound 0.1265 µM): 0.937
relative viability (UMC-11; first compound 0.4 µM): 0.692
relative viability (UMC-11; first compound 1.265 µM): 0.815
relative viability (UMC-11; first compound 4 µM): 0.49
relative viability (NCI-H1299; first compound 0.04 µM): 0.745
relative viability (NCI-H1299; first compound 0.1265 µM): 0.724
relative viability (NCI-H1299; first compound 0.4 µM): 0.725
relative viability (NCI-H1299; first compound 1.265 µM): 0.643
relative viability (NCI-H1299; first compound 4 µM): 0.682
relative viability (IA-LM; first compound 0.04 µM): 0.398
relative viability (IA-LM; first compound 0.1265 µM): 0.252
relative viability (IA-LM; first compound 0.4 µM): 0.244
relative viability (IA-LM; first compound 1.265 µM): 0.172
relative viability (IA-LM; first compound 4 µM): 0.145
relative viability (Calu-6; first compound 0.04 µM): 0.942
relative viability (Calu-6; first compound 0.1265 µM): 0.869
relative viability (Calu-6; first compound 0.4 µM): 0.848
relative viability (Calu-6; first compound 1.265 µM): 0.824
relative viability (Calu-6; first compound 4 µM): 0.698
relative viability (NCI-H1703; first compound 0.04 µM): 0.217
relative viability (NCI-H1703; first compound 0.1265 µM): 0.223
relative viability (NCI-H1703; first compound 0.4 µM): 0.228
relative viability (NCI-H1703; first compound 1.265 µM): 0.222
relative viability (NCI-H1703; first compound 4 µM): 0.226
relative viability (A549; first compound 0.04 µM): 0.482
relative viability (A549; first compound 0.1265 µM): 0.495
relative viability (A549; first compound 0.4 µM): 0.389
relative viability (A549; first compound 1.265 µM): 0.323
relative viability (A549; first compound 4 µM): 0.237
